# In patent publication US10202339B2, “Therapeutic compounds and compositions” (AGIOS PHARMACEUTICALS, INC., priority 2012, dated 2019):
# Target: IDH2 R140Q (Homo sapiens (Human), UniProt P48735, R140Q)
# Assay: IDH2 R140Q enzymatic cofactor depletion assay (diaphorase/resazurin)
# Format: biochemical
# Details: IDH2 R140Q enzyme, one hour preincubation with compound, one hour reaction; read-out: Enz R140Q
# Protocol: The reaction was terminated by the addition of a second enzyme, diaphorase, and a corresponding substrate, resazurin. Diaphorase reduces resazurin to the highly fluorescent resorufin with the concomitant oxidation of NADPH to NADP, both halting the IDH2 reaction by depleting the available cofactor pool and facilitating quantitation of the amount of cofactor remaining after a specific time period through quantitative production of an easily detected fluorophore.
# The compound was then incubated for one hour at room temperature with the enzyme; before starting the IDH2 reaction with the addition of 10 μl of substrate mix containing 50 μM NADPH and 6.3 mM α-KG in the buffer described above. After a further one hour of incubation at room temperature, the reaction was halted and the remaining NADPH measured through conversion of resazurin to resorufin by the addition of 25 μl Stop Mix (36 μg/ml diaphorase enzyme and 60 μM resazurin; in buffer). After one minute of incubation the plate was read on a plate reader at Ex544/Em590.
# Chain of IDH2 R140Q (P48735 40-452 R140Q): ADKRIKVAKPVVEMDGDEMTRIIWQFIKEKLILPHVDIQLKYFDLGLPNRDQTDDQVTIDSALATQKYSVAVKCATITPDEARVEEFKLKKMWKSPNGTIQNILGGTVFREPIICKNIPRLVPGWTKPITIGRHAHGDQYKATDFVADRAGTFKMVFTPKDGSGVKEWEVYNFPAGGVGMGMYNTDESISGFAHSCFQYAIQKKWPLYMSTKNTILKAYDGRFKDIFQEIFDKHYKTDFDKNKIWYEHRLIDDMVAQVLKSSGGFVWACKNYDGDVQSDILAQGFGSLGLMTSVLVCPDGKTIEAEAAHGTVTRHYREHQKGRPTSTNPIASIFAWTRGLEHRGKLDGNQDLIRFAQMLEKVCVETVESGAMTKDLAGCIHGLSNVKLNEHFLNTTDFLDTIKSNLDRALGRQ
row,IC50 [nM],Compound
1,100 to 1000,"O=C(Nc1ccccc1)Nc1cc(S(=O)(=O)Nc2ccccc2)ccc1-c1ccsc1 [Compound 1, N-phenyl-3-(3-phenylureido)-4-(thiophen-3-yl)benzenesulfonamide]"
2,100 to 1000,"Cc1ccccc1NC(=O)Nc1cc(S(=O)(=O)Nc2ccccc2)ccc1-c1ccsc1 [Compound 2, N-phenyl-4-(thiophen-3-yl)-3-(3-(o-tolyl)ureido)benzenesulfonamide]"
3,100 to 1000,"Cc1cccc(NC(=O)Nc2cc(S(=O)(=O)Nc3ccccc3)ccc2-c2ccsc2)c1 [Compound 3, N-phenyl-4-(thiophen-3-yl)-3-(3-(m-tolyl)ureido)benzenesulfonamide]"
4,100 to 1000,"CCc1ccccc1NC(=O)Nc1cc(S(=O)(=O)Nc2ccccc2)ccc1-c1ccsc1 [Compound 4, 3-(3-(2-ethylphenyl)ureido)-N-phenyl-4-(thiophen-3-yl)benzenesulfonamide]"
5,100 to 1000,"COc1cccc(NC(=O)Nc2cc(S(=O)(=O)Nc3ccccc3)ccc2-c2ccsc2)c1 [Compound 7, 3-(3-(3-methoxyphenyl)ureido)-N-phenyl-4-(thiophen-3-yl)benzenesulfonamide]"
6,100 to 1000,"Cc1ccc(F)c(NC(=O)Nc2cc(S(=O)(=O)Nc3ccccc3)ccc2-c2ccsc2)c1 [Compound 12, 3-(3-(2-fluoro-5-methylphenyl)ureido)-N-phenyl-4-(thiophen-3-yl)benzenesulfonamide]"
7,1000 to 10000,O=C(Nc1ccccc1O)Nc1cc(S(=O)(=O)Nc2ccccc2)ccc1-c1ccsc1 [Compound 13]
8,1000 to 10000,CC(C)c1cccc(NC(=O)Nc2cc(S(=O)(=O)Nc3ccccc3)ccc2-c2ccsc2)c1 [Compound 14]
9,1000 to 10000,Cc1cc(C)cc(NC(=O)Nc2cc(S(=O)(=O)Nc3ccccc3)ccc2-c2ccsc2)c1 [Compound 16]
10,1000 to 10000,O=C(Nc1ccc(F)c(Cl)c1)Nc1cc(S(=O)(=O)Nc2ccccc2)ccc1-c1ccsc1 [Compound 19]
11,1000 to 10000,O=C(Nc1ccc(F)c(C(F)(F)F)c1)Nc1cc(S(=O)(=O)Nc2ccccc2)ccc1-c1ccsc1 [Compound 21]
12,1000 to 10000,CC1CCC(NC(=O)Nc2cc(S(=O)(=O)Nc3ccccc3)ccc2-c2ccsc2)CC1 (centres unmarked) [Compound 24]
13,1000 to 10000,O=C(Nc1cc(Cl)cc(Cl)c1)Nc1cc(S(=O)(=O)NC2CC2)ccc1-c1ccsc1 [Compound 26]
14,100 to 1000,"O=C(Nc1cc(S(=O)(=O)NC2CC2)ccc1-c1ccsc1)Nc1cccc(Cl)c1Cl [Compound 27, N-cyclopropyl-3-(3-(2,3-dichlorophenyl)ureido)-4-(thiophen-3-yl)benzenesulfonamide]"
15,1000 to 10000,"Cc1cncc(NC(=O)Nc2cc(S(=O)(=O)NC3CC3)ccc2-c2ccsc2)c1 [Compound 29, N-cyclopropyl-3-(3-(5-methylpyridin-3-yl)ureido)-4-(thiophen-3-yl)benzenesulfonamide]"
16,< 100,"N#CC1(NS(=O)(=O)c2ccc(-c3ccsc3)c(NC(=O)Nc3cccc(C(F)(F)F)c3)c2)CC1 [Compound 31, N-(1-cyanocyclopropyl)-4-(thiophen-3-yl)-3-(3-(3-(trifluoromethyl)phenyl)ureido)benzenesulfonamide]"
17,100 to 1000,"O=C(Nc1ccccc1F)Nc1cc(S(=O)(=O)NCC(F)(F)F)ccc1-c1ccccc1 [Compound 33, 2-(3-(2-fluorophenyl)ureido)-N-(2,2,2-trifluoroethyl)-[1,1′-biphenyl]-4-sulfonamide]"
18,100 to 1000,"O=C(Nc1ccccc1F)Nc1cc(S(=O)(=O)NC2CC2)ccc1-c1ccccc1 [Compound 35, N-cyclopropyl-2-(3-(2-fluorophenyl)ureido)-[1,1′-biphenyl]-4-sulfonamide]"

# Continued, compound first:
row,Compound,IC50 [nM]
1,"2-(3-(1-methyl-1H-pyrazol-5-yl)ureido)-N-(2,2,2-trifluoroethyl)-[1,1′-biphenyl]-4-sulfonamide [Compound 77]",100 to 1000
2,"3′-methyl-N-morpholino-2-(3-(3-(trifluoromethyl)phenyl)ureido)-[1,1′-biphenyl]-4-sulfonamide [Compound 49]",100 to 1000
3,"CCc1cccc(NC(=O)Nc2cc(S(=O)(=O)Nc3ccccc3)ccc2-c2ccsc2)c1 [Compound 5, 3-(3-(3-ethylphenyl)ureido)-N-phenyl-4-(thiophen-3-yl)benzenesulfonamide]",100 to 1000
4,"COc1ccccc1NC(=O)Nc1cc(S(=O)(=O)Nc2ccccc2)ccc1-c1ccsc1 [Compound 6, 3-(3-(2-methoxyphenyl)ureido)-N-phenyl-4-(thiophen-3-yl)benzenesulfonamide]",100 to 1000
5,"O=C(Nc1cccc(Cl)c1)Nc1cc(S(=O)(=O)Nc2ccccc2)ccc1-c1ccsc1 [Compound 8, 3-(3-(3-chlorophenyl)ureido)-N-phenyl-4-(thiophen-3-yl)benzenesulfonamide]",100 to 1000
6,"O=C(Nc1ccccc1F)Nc1cc(S(=O)(=O)Nc2ccccc2)ccc1-c1ccsc1 [Compound 9, 3-(3-(2-fluorophenyl)ureido)-N-phenyl-4-(thiophen-3-yl)benzenesulfonamide]",100 to 1000
7,"O=C(Nc1cc(S(=O)(=O)Nc2ccccc2)ccc1-c1ccsc1)Nc1ccccc1C(F)(F)F [Compound 10, N-phenyl-4-(thiophen-3-yl)-3-(3-(2-(trifluoromethyl)phenyl)ureido)benzenesulfonamide]",100 to 1000
8,"Cc1ccc(C)c(NC(=O)Nc2cc(S(=O)(=O)Nc3ccccc3)ccc2-c2ccsc2)c1 [Compound 11, 3-(3-(2,5-dimethylphenyl)ureido)-N-phenyl-4-(thiophen-3-yl)benzenesulfonamide]",100 to 1000
9,Cc1cccc(C)c1NC(=O)Nc1cc(S(=O)(=O)Nc2ccccc2)ccc1-c1ccsc1 [Compound 15],1000 to 10000
10,Cc1ccc(NC(=O)Nc2cc(S(=O)(=O)Nc3ccccc3)ccc2-c2ccsc2)cc1C [Compound 17],1000 to 10000
11,O=C(Nc1ccc(F)cc1)Nc1cc(S(=O)(=O)Nc2ccccc2)ccc1-c1ccsc1 [Compound 18],1000 to 10000
12,O=C(Nc1ccc(F)c(F)c1)Nc1cc(S(=O)(=O)Nc2ccccc2)ccc1-c1ccsc1 [Compound 20],1000 to 10000
13,O=C(Nc1ccccn1)Nc1cc(S(=O)(=O)Nc2ccccc2)ccc1-c1ccsc1 [Compound 22],1000 to 10000
14,O=C(Nc1ncco1)Nc1cc(S(=O)(=O)Nc2ccccc2)ccc1-c1ccsc1 [Compound 23],1000 to 10000
15,"O=C(Nc1ccccc1Cl)Nc1cc(S(=O)(=O)NC2CC2)ccc1-c1ccsc1 [Compound 25, 3-(3-(2-chlorophenyl)ureido)-N-cyclopropyl-4-(thiophen-3-yl)benzenesulfonamide]",100 to 1000
16,"O=C(Nc1cc(S(=O)(=O)NC2CC2)ccc1-c1ccsc1)Nc1ccc(F)cc1C(F)(F)F [Compound 28, N-cyclopropyl-3-(3-(4-fluoro-2-(trifluoromethyl)phenyl)ureido)-4-(thiophen-3-yl)benzenesulfonamide]",100 to 1000
17,"O=C(Nc1cccc(C(F)(F)F)c1)Nc1cc(S(=O)(=O)NC2COC2)ccc1-c1ccsc1 [Compound 32, N-(oxetan-3-yl)-4-(thiophen-3-yl)-3-(3-(3-(trifluoromethyl)phenyl)ureido)benzenesulfonamide]",< 100
18,"O=C(Nc1ccccc1)Nc1cc(S(=O)(=O)NC2CC2)ccc1-c1ccccc1 [Compound 34, N-cyclopropyl-2-(3-phenylureido)-[1,1′-biphenyl]-4-sulfonamide]",100 to 1000
19,"O=C(Nc1cccc(C(F)(F)F)c1)Nc1cc(S(=O)(=O)NC2CC2)ccc1-c1ccccc1 [Compound 36, N-cyclopropyl-2-(3-(3-(trifluoromethyl)phenyl)ureido)-[1,1′-biphenyl]-4-sulfonamide]",100 to 1000
20,"O=C(Nc1ccc(Cl)cc1)Nc1cc(S(=O)(=O)NCC(F)(F)F)ccc1-c1ccccc1 [Compound 37, 2-(3-(4-chlorophenyl)ureido)-N-(2,2,2-trifluoroethyl)-[1,1′-biphenyl]-4-sulfonamide]",100 to 1000
21,"O=C(Nc1cc(F)ccc1F)Nc1cc(S(=O)(=O)NCC(F)(F)F)ccc1-c1ccccc1 [Compound 38, 2-(3-(2,5-difluorophenyl)ureido)-N-(2,2,2-trifluoroethyl)-[1,1′-biphenyl]-4-sulfonamide]",100 to 1000
22,"O=C(Nc1ccc(F)cc1)Nc1cc(S(=O)(=O)NCC(F)(F)F)ccc1-c1ccccc1 [Compound 39, 2-(3-(4-fluorophenyl)ureido)-N-(2,2,2-trifluoroethyl)-[1,1′-biphenyl]-4-sulfonamide]",100 to 1000
23,"O=C(Nc1ccc(F)c(Cl)c1)Nc1cc(S(=O)(=O)NCC(F)(F)F)ccc1-c1ccccc1 [Compound 40, 2-(3-(3-chloro-4-fluorophenyl)ureido)-N-(2,2,2-trifluoroethyl)-[1,1′-biphenyl]-4-sulfonamide]",100 to 1000
24,"O=C(Nc1cc(S(=O)(=O)NCC(F)(F)F)ccc1-c1ccccc1)Nc1c(F)cccc1F [Compound 41, 2-(3-(2,6-difluorophenyl)ureido)-N-(2,2,2-trifluoroethyl)-[1,1′-biphenyl]-4-sulfonamide]",100 to 1000
25,"O=C(Nc1ccccc1Cl)Nc1cc(S(=O)(=O)NCC(F)(F)F)ccc1-c1ccccc1 [Compound 42, 2-(3-(2-chlorophenyl)ureido)-N-(2,2,2-trifluoroethyl)-[1,1′-biphenyl]-4-sulfonamide]",100 to 1000
26,"O=C(Nc1ccccc1OC(F)(F)F)Nc1cc(S(=O)(=O)NCC(F)(F)F)ccc1-c1ccccc1 [Compound 43, N-(2,2,2-trifluoroethyl)-2-(3-(2-(trifluoromethoxy)phenyl)ureido)-[1,1′-biphenyl]-4-sulfonamide]",100 to 1000
